In patent US20200368271A1, “METHOD AND APPARATUS FOR ADMINISTERING GASES INCLUDING NITRIC OXIDE” (priority 2015, published 2020):

Legend:
[1] = tested on: rat brain ischemia-reperfusion (I/R); settings: acute rat model, inhaled; Ohsawa 2007; cited from earlier work
chrondrocytes = settings: Yokota 2015; cited from earlier work
[2] = tested on: mice with intratracheal administration of LPS; experiment: LPS-induced lung injury in mice (intratracheal LPS); type: in vivo; settings: for lung injury after intratracheal LPS: 2% H2 and/or 20 ppm NO for 3 hours starting at 5 minutes or 3 hours after LPS administration; for pulmonary inflammation and cell apoptosis: H2 and/or NO treatment
Text: Applicants have discovered that NO's effect as an antioxidant may be enhanced by eliminating highly reactive by-products of NO inhalation such as peroxynitrite, by adding H2 to inhaled NO gas.

neonatal piglets = settings: short-term exposure, Ekekezie 2000; cited from earlier work
rats exposed to high O2 = settings: cited from earlier work
HIF = settings: cited from earlier work

| Structure (SMILES) | lung injury after intratracheal LPS [2] | pulmonary inflammation and cell apoptosis [2] | lung collagen accumulation (neonatal piglets) | further results |
| --- | --- | --- | --- | --- |
| [HH] [H2, hydrogen] | significantly improved | down-regulated |  | brain injury associated with focal ischemia-reperfusion [1]: markedly suppressed; effect on cells under oxidant injury (chrondrocytes): cytoprotective effects |
| O=O [O2, oxygen] |  |  | increases lung collagen accumulation |  |
| COC(=O)[C@@H](N)CCCN=C(N)N[N+](=O)[O-] [Nω-nitro-1-arginine methyl ester] |  |  |  | survival on exposure to >95% O2 with endogenous NO production blocked (rats exposed to high O2; neonatal rats, compared with control rats): significantly fewer survived |
| [N]=O [NO, nitric oxide] | significantly improved | down-regulated | increases lung collagen accumulation | survival in high O2 exposure (rats exposed to high O2; rats, inhaled NO): increase survival; effect on HIF at high doses (HIF; high doses and after 30 minutes): inhibitory; effect on HIF at low dose (HIF; low dose, for 30 minutes, during hypoxia): stimulates |
